Values quoted from earlier work, collected in patent publication US20180338945A1, “SKIN ADHESIVES, ANTIMICROBIAL COMPOSITIONS, ARTICLES, AND METHODS FOR THE USE THEREOF” (DERMALINK TECHNOLOGIES, INC., priority 2015, published 2018).

Legend:
E. coli = settings: pure LAE
A. brasiliensis = settings: pure LAE

In the case of `CCCCCCCCCCCC(=O)N[C@@H](CCCNC(=N)N)C(=O)OCC` [LAE, N^α-lauroyl-arginine ethyl ester], the “minimum inhibitory concentration (MIC)” value (E. coli) is given as 16 micrograms per mL and the “minimum inhibitory concentration (MIC)” value (A. brasiliensis) is given as 32 micrograms per mL.
